According to patent US20230007838A1, “FUNCTIONALIZED LONG-CHAIN HYDROCARBON MONO- AND DI-CARBOXYLIC ACIDS AND THEIR USE FOR THE PREVENTION OR TREATMENT OF DISEASE” (ESPERVITA THERAPEUTICS, INC., priority 2019, published 2023):

Assays:
[1] = tested on: Hep3B cells; experiment: Clonogenicity (colony formation) in Hep3B liver cancer cells; format: cell-based; details: Homo sapiens, 168 h, 7 days treatment
Procedure: (§1) Liver cancer cell lines Hep3B (human) and Hepa1-6 (murine) were maintained in either Eagle's Minimum Essential Medium (Corning) for Hep3B cells or High Glucose DMEM (Gibco) for Hepa1-6 cells, supplemented with 10% FBS (Gibco) and 1% Antibiotic-Antimycotic (Thermo-Fisher Scientific). Each cell line was seeded at 1000 cells/well in 12-well plates. The next day, the media were replaced, and cells were treated with 0 (vehicle control, 0.1% DMSO), 1, 5, 10, 30, 50, or 100 μM Compound I-32, I-61, I-1, or III-1 (final concentration of DMSO 0.1%) for 7 days. On day 9, the media were removed, and cells were fixed with 10% formalin (500 μl) for 10 minutes at room temperature, washed with 1×PBS and stained with crystal violet. After 10 minutes the excess stain was removed by rinsing three times with tap water. The plates were allowed to dry overnight, then the number of colonies (>50 cells) in each well were counted using light microscopy as described previously by Villiani L. A., et al.

[2] = tested on: Hepa1-6 cells; experiment: Cancer cell proliferation (PrestoBlue) in Hepa1-6 cells; format: cell-based, murine; details: Hepa1-6 (m), 72 hours
Procedure: (§2) Human liver cancer cells Hep3B and murine liver cancer cells Hepa1-6, respectively, were seeded at a cell density of 3000 cells/well in 96-well plates using either Eagle's Minimum Essential Medium (Corning) for Hep3B or Dulbecco's Modified Eagle's Medium (DMEM) High Glucose (Gibco) for Hepa1-6 cells, supplemented with 10% fetal bovine serum (FBS, Gibco) and 1% Antibiotic-Antimycotic solution (Thermo-Fisher Scientific). The next day, the cells were treated with 0 (vehicle control), 0.1, 0.5, 1, 5, 10, 30, 50 or 100 μM Compound I-32, I-61, I-1, or III-1 (final concentration of DMSO 0.1%) and were allowed to grow for 72 hours at 37° C. On day 5, 10 μl of PrestoBlue™ Cell Viability Reagent (Invitrogen) was added to each well and the plate was incubated at 37° C. for an additional 1-2 hours.

[3] = tested on: Hepa1-6 cells; experiment: Clonogenicity (colony formation) in Hepa1-6 liver cancer cells; format: cell-based, murine; details: Mus musculus, 168 h; Hepa1-6 (m), 7 days treatment
Procedure: as §1

[4] = tested on: Hep3B cells; experiment: Cancer cell proliferation (PrestoBlue) in Hep3B cells; format: cell-based, human; details: Hep3B (h), 72 hours
Procedure: as §2

[5] = tested on: primary hepatocytes (m); experiment: De novo lipogenesis (DNL) in mouse primary hepatocytes; format: cell-based; details: Hepatocyte
[6] = tested on: Hep3B cells; experiment: Combination study with sorafenib or lenvatinib, proliferation in Hep3B cells; details: for Synergistic or additive effect on antiproliferative activity (CompuSyn analysis): in the presence of sorafenib or lenvatinib, FIGS. 8A-8D; for IC50: read-out: IC50 for inhibition of proliferation
Procedure: (§3) Hep3B (supplied by ATCC) or Hepa1-6 (supplied by ATCC) cells were seeded in 96-well plates at a density of 500 cells/well with complete media. […] Then, cells were incubated in an incubator for 72 h. On day 5, 10 μl of presto blue (Invitrogen, cat # A13261) cell viability reagent was added in each 96-well plate and incubated at 37° C. for 1-2 h. After incubation, fluorescence was measured with an excitation/emission wavelength of 560/590 nm. […] Proliferation IC50 values were calculated using a non-linear regression model in Graph pad Prism 8.

[7] = tested on: Hepa1-6 cells; experiment: Combination study with sorafenib or lenvatinib, proliferation in Hepa1-6 cells
Procedure: as §3

IC50 [1] [µM] | IC50 [3] [µM] | IC50 ([6]; Homo sapiens, Hep3B) [µM] | IC50 ([6]; Hep3B cells, in the absence of a compound of the invention, separate experiment (data not shown)) [µM] | Structure (SMILES) | Cancer Cell Proliferation % reduction vs control at 100 μM, Mean (Standard Deviation) [2] | Cancer Cell Proliferation % reduction vs control at 100 μM, Mean (Standard Deviation) [4] | IC50 [5] [µM] | Synergistic or additive effect on antiproliferative activity (CompuSyn analysis) ([6]; Hep3B cells) | IC50 ([7]; Mus musculus, Hepa1-6, read-out: IC50 for inhibition of proliferation) [µM] | IC50 ([7]; read-out: IC50 for inhibition of proliferation, Hepa1-6 cells, in the absence of a compound of the invention, separate experiment (data not shown)) [µM]
53.9 | 55.6 |  |  | CC(C)(CCCCc1ccc(CCCCC(C)(C)C(=O)O)cc1)C(=O)O [Compound I-1, 6,6′-(1,4-phenylene)bis(2,2-dimethylhexanoic acid)] | 25.9 (5.7) % | 41.8 (8.4) % | 12.1 |  |  | 
41.7 | 52.3 |  |  | CC(C)(CCCCc1cccc(CCCCC(C)(C)C(=O)O)c1)C(=O)O [Compound I-32, 6-[3-(5-Carboxy-5-methylhexyl)-phenyl]-2,2-dimethylhexanoic acid] | 18.6 (3.1) % | 30.8 (2.6) % | 8.3 | synergistic inhibition |  | 
57.3 | 73.4 |  |  | CC(C)(CCCc1ccccc1CCCC(C)(C)C(=O)O)C(=O)O [Compound I-61, 5,5′-(1,2-Phenylene)bis(2,2-dimethylpentanoic acid)] | 21.8 (8.9) % | 35.7(5.8) % |  | synergistic inhibition |  | 
55.6 | 61 |  |  | CC(C)(CCCc1ccc(CCCC(C)(C)C(=O)O)cc1)C(=O)O [III-1, 1,4-Bis(4-carboxy-4-methylpentyl)benzene] | 15.7 (6.7) % | 29.7 (6.2) % |  |  |  | 
 |  | 0.5 |  | COc1cc2nccc(Oc3ccc(NC(=O)NC4CC4)c(Cl)c3)c2cc1C(N)=O [lenvatinib, reference compound] |  |  |  |  | 30 | 
 |  |  | 3 | CNC(=O)c1cc(Oc2ccc(NC(=O)Nc3ccc(Cl)c(C(F)(F)F)c3)cc2)ccn1 [sorafenib, reference compound] |  |  |  |  |  | 5
